Test results taken from US20160287589A1, “SUBSTITUTED-IMIDAZOPYRIDAZINES” (BAYER PHARMA AKTIENGESELLSCHAFT, priority 2013, published 2016).

Legend:
MKNK1 [1] = biological target: T1, MKNK1 (Homo sapiens, UniProt Q9BUB5, T385D); assay: MKNK1 kinase assay (MKNK1 TR-FRET assay); format: biochemical; settings: Table 1c; 10 μM ATP, 15 min preincubation
T1 construct: GST (N); purchased Carna Biosciences 02-145; host or cells: insect cells (baculovirus expression system)

MKNK1 [2] = biological target: T1, MKNK1; assay: MKNK1 kinase high ATP assay (TR-FRET-based); format: biochemical; settings: Table 2c; 2 mM ATP, 15 min preincubation
Summary of the method: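 TR-FRET read-out (anti-phospho-S6 Ser236 antibody, Eu/XL665) of biotin-peptide phosphorylation (0.06 μM) at high ATP (2 mM final). Enzyme was GST-MKNK1 full length, T344D, pre-bound to compound for 15 min before a 30 min reaction at 22 °C, pH 7.5. Inhibition scaled between no-inhibitor (0%) and no-enzyme (100%) wells.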

T1 sequence (Q9BUB5 1-424 isoform Q9BUB5-2 T344D): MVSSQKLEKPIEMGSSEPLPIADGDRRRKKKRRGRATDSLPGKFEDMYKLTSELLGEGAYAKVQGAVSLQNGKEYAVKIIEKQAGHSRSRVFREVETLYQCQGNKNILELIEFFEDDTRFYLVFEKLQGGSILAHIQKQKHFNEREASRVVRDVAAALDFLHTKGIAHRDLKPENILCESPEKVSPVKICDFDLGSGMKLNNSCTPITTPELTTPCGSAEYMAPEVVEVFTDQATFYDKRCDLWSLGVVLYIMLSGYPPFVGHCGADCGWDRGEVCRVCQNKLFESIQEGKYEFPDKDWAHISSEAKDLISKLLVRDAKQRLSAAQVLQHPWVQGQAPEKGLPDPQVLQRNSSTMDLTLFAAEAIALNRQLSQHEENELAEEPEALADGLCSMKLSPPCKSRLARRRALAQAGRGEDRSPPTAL

## CC(C)(C)N1CCN(c2nccc3oc(-c4cnc5ccc(OC[C@H]6CCC(=O)N6)nn45)cc23)CC1 [III-63, (5R)-5-[({3-[4-(4-tert-Butylpiperazin-1-yl)furo[3,2-c]pyridin-2-yl]imidazo-[1,2-b]pyridazin-6-yl}oxy)methyl]pyrrolidin-2-one]
MKNK1 [1]
  IC50: 4.3 nM
MKNK1 [2]
  IC50: 12.6 nM

## CN(C)[C@@H]1CCN(c2nccc3oc(-c4cnc5ccc(OC[C@H]6CCC(=O)N6)nn45)cc23)C1 [III-64, (5R)-5-{[(3-{4-[(3R)-3-(Dimethylamino)pyrrolidin-1-yl]furo[3,2-c]pyridin-2-yl}imidazo[1,2-b]pyridazin-6-yl)oxy]methyl}pyrrolidin-2-one]
MKNK1 [1]
  IC50: 0.4 nM
MKNK1 [2]
  IC50: 0.1 nM

## CN1CCC(N(C)c2nccc3oc(-c4cnc5ccc(OC[C@H]6CCC(=O)N6)nn45)cc23)CC1 [III-65, (5R)-5-{[(3-{4-[Methyl(1-methylpiperidin-4-yl)amino]furo[3,2-c]pyridin-2-yl}imidazo[1,2-b]pyridazin-6-yl)oxy]methyl}pyrrolidin-2-one]
MKNK1 [1]
  IC50: 11.6 nM
MKNK1 [2]
  IC50: 19.9 nM

## CC(C)(C)[Si](C)(C)OC[C@H]1CCCN1c1nccc2oc(-c3cnc4ccc(OC[C@H]5CCC(=O)N5)nn34)cc12 [III-66, (5R)-5-{[(3-{4-[(2R)-2-({[tert-Butyl(dimethyl)silyl]oxy}methyl)pyrrolidin-1-yl]furo[3,2-c]pyridin-2-yl}imidazo[1,2-b]pyridazin-6-yl)oxy]methyl}pyrrolidin-2-one]
MKNK1 [1]
  IC50: 4.2 nM
MKNK1 [2]
  IC50: 8.5 nM

## O=C1CC[C@H](COc2ccc3ncc(-c4cc5c(N6CCC[C@@H]6CO)nccc5o4)n3n2)N1 [III-67, (5R)-5-{[(3-{4-[(2R)-2-(Hydroxymethyl)pyrrolidin-1-yl]furo[3,2-c]pyridin-2-yl}imidazo[1,2-b]pyridazin-6-yl)oxy]methyl}pyrrolidin-2-one]
MKNK1 [1]
  IC50: 10.7 nM
MKNK1 [2]
  IC50: 11 nM

## O=C1CC[C@H](COc2ccc3ncc(-c4cc5c(N6CCOCC6)nccc5o4)n3n2)N1 [III-68, (5R)-5-[({3-[4-(Morpholin-4-yl)furo[3,2-c]pyridin-2-yl]imidazo[1,2-b]pyridazin-6-yl}oxy)methyl]pyrrolidin-2-one]
MKNK1 [1]
  IC50: 0.5 nM
MKNK1 [2]
  IC50: 0.7 nM

## CCN(CCOC)c1nccc2oc(-c3cnc4ccc(OC[C@H]5CCC(=O)N5)nn34)cc12 [III-69, (5R)-5-{[(3-{4-[Ethyl(2-methoxyethyl)amino]furo[3,2-c]pyridin-2-yl}imidazo[1,2-b]pyridazin-6-yl)oxy]methyl}pyrrolidin-2-one]
MKNK1 [1]
  IC50: 0.4 nM
MKNK1 [2]
  IC50: 0.1 nM

## CC(C)(C)OC(=O)N1CCN(c2nccc3oc(-c4cnc5ccc(OC[C@H]6CCC(=O)N6)nn45)cc23)CC1 [III-70, tert-Butyl 4-[2-(6-{[(2R)-5-oxopyrrolidin-2-yl]methoxy}imidazo[1,2-b]pyridazin-3-yl)furo[3,2-c]pyridin-4-yl]piperazine-1-carboxylate]
MKNK1 [1]
  IC50: 4.8 nM
MKNK1 [2]
  IC50: 13.5 nM

## O=C1CC[C@H](COc2ccc3ncc(-c4cc5c(N6CCNCC6)nccc5o4)n3n2)N1 [III-71, (5R)-5-[({3-[4-(Piperazin-1-yl)furo[3,2-c]pyridin-2-yl]imidazo[1,2-b]pyridazin-6-yl}oxy)methyl]pyrrolidin-2-one]
MKNK1 [1]
  IC50: 2 nM
MKNK1 [2]
  IC50: 1.4 nM

## C[C@@H]1CN(c2nccc3oc(-c4cnc5ccc(OC[C@H]6CCC(=O)N6)nn45)cc23)C[C@H](C)O1 [III-72, (5R)-5-{[(3-{4-[(2R,6S)-2,6-Dimethylmorpholin-4-yl]furo[3,2-c]pyridin-2-yl}imidazo[1,2-b]pyridazin-6-yl)oxy]methyl}pyrrolidin-2-one]
MKNK1 [1]
  IC50: 1 nM
MKNK1 [2]
  IC50: 2 nM

## CN(CCCO)c1nccc2oc(-c3cnc4ccc(OC[C@H]5CCC(=O)N5)nn34)cc12 [III-73, (5R)-5-{[(3-{4-[(3-Hydroxypropyl)(methyl)amino]furo[3,2-c]pyridin-2-yl}imidazo[1,2-b]pyridazin-6-yl)oxy]methyl}pyrrolidin-2-one]
MKNK1 [1]
  IC50: 0.6 nM
MKNK1 [2]
  IC50: 0.8 nM

## CN(C)C1CCN(c2nccc3oc(-c4cnc5ccc(OC[C@H]6CCC(=O)N6)nn45)cc23)CC1 [III-74, (5R)-5-{[(3-{4-[4-(Dimethylamino)piperidin-1-yl]furo[3,2-c]pyridin-2-yl}imidazo[1,2-b]pyridazin-6-yl)oxy]methyl}pyrrolidin-2-one]
MKNK1 [1]
  IC50: 1 nM
MKNK1 [2]
  IC50: 1.5 nM

## CN(C)[C@H]1CCN(c2nccc3oc(-c4cnc5ccc(OC[C@H]6CCC(=O)N6)nn45)cc23)C1 [III-75, (5R)-5-{[(3-{4-[(3S)-3-(Dimethylamino)pyrrolidin-1-yl]furo[3,2-c]pyridin-2-yl}imidazo[1,2-b]pyridazin-6-yl)oxy]methyl}pyrrolidin-2-one]
MKNK1 [1]
  IC50: 0.8 nM
MKNK1 [2]
  IC50: 1.7 nM

## O=C1CC[C@H](COc2ccc3ncc(-c4cc5c(N6CCN(c7ccccc7)CC6)nccc5o4)n3n2)N1 [III-76, (5R)-5-[({3-[4-(4-Phenylpiperazin-1-yl)furo[3,2-c]pyridin-2-yl]imidazo[1,2-b]pyridazin-6-yl}oxy)methyl]pyrrolidin-2-one]
MKNK1 [1]
  IC50: 3.5 nM
MKNK1 [2]
  IC50: 6 nM

## O=C1CC[C@H](COc2ccc3ncc(-c4cc5c(N6CCC(CO)CC6)nccc5o4)n3n2)N1 [III-77, (5R)-5-{[(3-{4-[4-(Hydroxymethyl)piperidin-1-yl]furo[3,2-c]pyridin-2-yl}imidazo[1,2-b]pyridazin-6-yl)oxy]methyl}pyrrolidin-2-one]
MKNK1 [1]
  IC50: 0.7 nM
MKNK1 [2]
  IC50: 1.1 nM

## COC[C@H]1CCCN1c1nccc2oc(-c3cnc4ccc(OC[C@H]5CCC(=O)N5)nn34)cc12 [III-78, (5R)-5-{[(3-{4-[(2R)-2-(Methoxymethyl)pyrrolidin-1-yl]furo[3,2-c]pyridin-2-yl}imidazo[1,2-b]pyridazin-6-yl)oxy]methyl}pyrrolidin-2-one]
MKNK1 [1]
  IC50: 0.2 nM
MKNK1 [2]
  IC50: 1.2 nM

## CCN(CCOC(C)(C)C)c1nccc2oc(-c3cnc4ccc(OC[C@H]5CCC(=O)N5)nn34)cc12 [III-80, (5R)-5-{[(3-{4-[(2-tert-Butoxyethyl)(ethyl)amino]furo[3,2-c]pyridin-2-yl}imidazo[1,2-b]pyridazin-6-yl)oxy]methyl}pyrrolidin-2-one]
MKNK1 [1]
  IC50: 0.4 nM
MKNK1 [2]
  IC50: 0.2 nM

## COCCN(C)c1nccc2oc(-c3cnc4ccc(OC[C@H]5CCC(=O)N5)nn34)cc12 [III-81, (5R)-5-{[(3-{4-[(2-Methoxyethyl)(methyl)amino]furo[3,2-c]pyridin-2-yl}imidazo[1,2-b]pyridazin-6-yl)oxy]methyl}pyrrolidin-2-one]
MKNK1 [1]
  IC50: 0.3 nM
MKNK1 [2]
  IC50: 0.5 nM

## CCCN(CCOC)c1nccc2oc(-c3cnc4ccc(OC[C@H]5CCC(=O)N5)nn34)cc12 [III-82, (5R)-5-{[(3-{4-[(2-Methoxyethyl)(propyl)amino]furo[3,2-c]pyridin-2-yl}imidazo[1,2-b]pyridazin-6-yl)oxy]methyl}pyrrolidin-2-one]
MKNK1 [1]
  IC50: 0.4 nM
MKNK1 [2]
  IC50: 0.3 nM

## COC[C@@H]1CCCN1c1nccc2oc(-c3cnc4ccc(OC[C@H]5CCC(=O)N5)nn34)cc12 [III-83, (5R)-5-{[(3-{4-[(2S)-2-(Methoxymethyl)pyrrolidin-1-yl]furo[3,2-c]pyridin-2-yl}imidazo[1,2-b]pyridazin-6-yl)oxy]methyl}pyrrolidin-2-one]
MKNK1 [1]
  IC50: 11.6 nM
MKNK1 [2]
  IC50: 19.1 nM

## C[C@@H]1COCCN1c1nccc2oc(-c3cnc4ccc(OC[C@@H]5CCC(=O)N5)nn34)cc12 [III-85, (5S)-5-{[(3-{4-[(3R)-3-Methylmorpholin-4-yl]furo[3,2-c]pyridin-2-yl}imidazo[1,2-b]pyridazin-6-yl)oxy]methyl}pyrrolidin-2-one]
MKNK1 [1]
  IC50: 4.8 nM
MKNK1 [2]
  IC50: 5.2 nM

## CCN(CCOC)c1nccc2oc(-c3cnc4ccc(OC[C@@H]5CCC(=O)N5)nn34)cc12 [III-86, (S)-5-{[(3-{4-[Ethyl(2-methoxyethyl)amino]furo[3,2-c]pyridin-2-yl}imidazo[1,2-b]pyridazin-6-yl)oxy]methyl}pyrrolidin-2-one]
MKNK1 [1]
  IC50: 0.7 nM
MKNK1 [2]
  IC50: 0.5 nM

## O=C1CNC[C@H](COc2ccc3ncc(-c4cc5c(N6CCOCC6)nccc5o4)n3n2)N1 [III-89, (6R)-6-[({3-[4-(Morpholin-4-yl)furo[3,2-c]pyridin-2-yl]imidazo[1,2-b]pyridazin-6-yl}oxy)methyl]piperazin-2-one]
MKNK1 [1]
  IC50: 2.9 nM
MKNK1 [2]
  IC50: 8 nM

## CCN(CCOC)c1nccc2oc(-c3cnc4ccc(OC[C@H]5CNCC(=O)N5)nn34)cc12 [III-90, (6R)-6-{[(3-{4-[Ethyl(2-methoxyethyl)amino]furo[3,2-c]pyridin-2-yl}imidazo[1,2-b]pyridazin-6-yl)oxy]methyl}piperazin-2-one]
MKNK1 [1]
  IC50: 0.8 nM
MKNK1 [2]
  IC50: 0.5 nM

## COc1ccc2ncc(-c3cc4c(N5CCN(c6ccccc6)CC5)nccc4o3)n2n1 [III-91, 6-Methoxy-3-[4-(4-phenylpiperazin-1-yl)furo[3,2-c]pyridin-2-yl]imidazo[1,2-b]pyridazine]
MKNK1 [1]
  IC50: 8.4 nM
MKNK1 [2]
  IC50: 18.3 nM

## N[C@H]1C[C@H](Oc2ccc3ncc(-c4cc5c(N6CCOCC6)nccc5o4)n3n2)C1 [III-95, trans-3-({3-[4-(Morpholin-4-yl)furo[3,2-c]pyridin-2-yl]imidazo[1,2-b]pyridazin-6-yl}oxy)cyclobutanamine]
MKNK1 [1]
  IC50: 3.2 nM
MKNK1 [2]
  IC50: 7.8 nM

## CN1CCN(c2nccc3oc(-c4cnc5ccc(O[C@H]6C[C@@H](N)C6)nn45)cc23)CC1 [III-96, cis-3-({3-[4-(4-Methylpiperazin-1-yl)furo[3,2-c]pyridin-2-yl]imidazo[1,2-b]pyridazin-6-yl}oxy)cyclobutanamine]
MKNK1 [1]
  IC50: 3.9 nM
MKNK1 [2]
  IC50: 3.4 nM

## CN(CCCN1CCCC1)c1nccc2oc(-c3cnc4ccc(O[C@H]5C[C@H](N)C5)nn34)cc12 [III-97, 2-{6-[(trans-3-Aminocyclobutyl)oxy]imidazo[1,2-b]pyridazin-3-yl}-N-methyl-N-[3-(pyrrolidin-1-yl)propyl]furo[3,2-c]pyridin-4-amine]
MKNK1 [1]
  IC50: 5.6 nM
MKNK1 [2]
  IC50: 21 nM
